Patent US20220030866A1, “CONJUGATES OF AUXIN ANALOGS” (The State of Israel, Ministry of Agriculture & Rural …, priority 2019, published 2022)
Marks after values point to notes of the source that are not given here.

Tests used:
Assay type in all cases: in vivo
[1] = system: cuttings from mature Eucalyptus grandis trees; experiment: rooting of cuttings from mature Eucalyptus grandis trees; conditions: for root number compared to IBA control, in words: Example 12: 6000 ppm IBA and 50 μM conjugate dip plus spray; for appearance of the roots compared with IBA alone: 6000 ppm IBA with 100 μM compound, submersion and spraying
Procedure: Eight-year-old Eucalyptus grandis plants were grown from seeds and placed in a net house in 20 liter pots containing peat and tuff (70:30, v/v), drip irrigated and fertilized with 3 liters of Shefer™ 737 liquid fertilizer (ICL Fertilizers, Israel) per cubic meter of water. Cuttings were collected from branches which grew 2-2.5 meters above the ground. Cuttings were 2-3 mm thick branches, 15 cm long, with 1-2 pairs of leaves. The leaf blades were cut in half to decrease transpiration. Cuttings were treated with 6000 ppm IBA (potassium indole-3-butyric acid) for 1 minute with or without 100 μM of each tested compound. The tested compounds were either applied to the base of the cutting, with or without IBA and/or sprayed on the foliage in the presence of 0.05% Triton™ X-100 surfactant. Cuttings were rooted in rooting tables heated to 25° C. under constant 90% humidity, in a controlled-climate greenhouse. The rooting medium contained crushed polystyrene foam: vermiculite no. 3: pit (3:2:1, v/v/v). Rooting was recorded after 30-60 days. Roots system architecture was analyzed by WinRHIZO™ system scanner and software.
Exemplary conjugates prepared as described in Example 1 were tested for their ability to promote adventitious root (AR) formation in cuttings from mature eucalyptus (Eucalyptus grandis) trees. In this model, AR formation is difficult to induce, with 5-15% root development in the presence of IBA potassium salt [Abu-Abied et al., Plant J 2012, 71:787-799], such that effective AR formation indicates a potent root formation activity.
Various concentrations and mode of applications were tested for each compound in the presence or absence of IBA (the “gold standard” rooting enhancer). A concentration of 100 μM of each conjugate was used for an initial screen of 37 conjugates, in which the compounds were applied to the base of the cutting by dipping (submerging the cutting base in a solution of the conjugate for one minute) or to the foliage by spraying. After 45 days, the cuttings were scored for the presence of callus or roots.
Conjugates prepared as described herein were evaluated in a Eucalyptus grandis rooting model, according to procedures such as described hereinabove. The bases of cuttings (a 12-15 cm long branch with the two upper leaves, whose blades were cut in half) were dipped in a solution containing 6000 ppm IBA potassium salt and 50 μM of conjugate for 1 minute, and the leaves were sprayed with 50 μM of the same conjugate (mixed with 0.5% Triton™ X-100 surfactant). The cuttings were imbedded in a heated (25° C.) rooting table containing a 1:2:3 ratio of peat:vermiculite:polystyrene, under 90% relative humidity.

[2] = system: argan (Argania spinosa) cuttings; experiment: rooting of argan cuttings; conditions: in vivo
Procedure: The ability of exemplary conjugates to promote rooting in plants which are recalcitrant to rooting (in addition to the results obtained with Eucalyptus grandis in Example 3) was examined using cuttings of argan (Argania spinosa) and jojoba (Simmondsia chinensis) in a commercial nursery (Shorashim). The argan and jojoba cuttings were treated with 100 μM of a conjugate (any of Compounds 10-1t) with 6000 ppm IBA. The common treatment T-8 (talc with 8000 ppm IBA and a fungicide) or 6000 ppm IBA (without conjugate) served as a control.
(§1) Exemplary conjugates were also tested for rooting the hard-to-root species of avocado (VC801 rootstock) and argan, according to procedures described hereinabove.

[3] = system: avocado rootstock cuttings; experiment: rooting of avocado rootstock cuttings; conditions: VC801 rootstock
Description: Avocado rootstock is extremely difficult to root. Currently, the common technique for propagating clones of avocado rootstock is to graft the desired rootstock on a seedling, and transfer to the dark to generate an etiolated branch. This branch can be rooted and grafted with the desired variety while still grafted on the seed [Frolich & Platt, California Avocado Society 1971-72 Yearbook 1972, 55:97-109]. However, the preparation of such twice-grafted seedlings is time-consuming and expensive.
The ability of exemplary conjugates to promote rooting in green avocado cuttings (in the presence of IBA) was therefore examined. In particular, Compounds 2h (MCPA-methanol), 4b (NAA-β-alanine methyl ester), 3g (2-DP-methyl-4-aminobenzoate), 3f (2-DP-p-toluidine), 1l (4-CPA-morpholine) and is (4-CPA-D-Trp) were tested.
as §1

[4] = system: Arabidopsis seedlings; experiment: adventitious root formation in intact etiolated Arabidopsis seedlings; conditions: for adventitious roots formed on average: intact etiolated seedlings, 50 nM, FIG. 17 legend 10 μM for one hour
Procedure: (§2) Adventitious roots (ARs) were induced in intact plants, using previously described procedures [Gutierrez et al., Plant Cell 2009, 21:3119-3132; Abu-Abied et al., Plant J 2012, 71:787-799; Rasmussen et al., Plant Physiol 2012, 158:1976-1987]. Briefly, seeds were germinated on MS/0.8% agar plates supplemented with 3% sucrose. The plates were kept in the dark for 2 days at 4° C., then 5 days at 22° C. in the dark, 2 days in the light, 3 days in the dark and then additional 4 days in the light to complete 2 weeks when roots were counted using a stereoscope. Sensitivity to auxin and/or auxin analogs was determined by following root elongation on vertical plates. The 4-day-old seedlings were transferred to MS plates containing 0.05 or 0.5 μM IAA and the root length was measured after 5 days, including the number of LRs in each root and calculation of the LR density. Each treatment experiment included 10-15 plants and was repeated 3 times.
In a third assay utilizing an Arabidopsis model, induction of adventitious root AR formation in intact plants was examined in the presence of 50 nM of tested compounds, which included 5 days incubation in the dark, followed by a shift to the light, according to procedures described by Sorin et al. [Plant Cell 2005, 17:1343-1359].
Conjugates prepared as described herein were evaluated in an Arabidopsis rooting model, according to procedures such as described hereinabove. Seeds were germinated and kept in the dark for 4 days. The etiolated seedlings were then incubated for 1 hour in 10 μM of each compound and then transferred to vertical MS medium-containing plates.

[5] = system: mung bean cuttings; experiment: rooting of mung bean cuttings (number of adventitious roots per cutting); conditions: tested at 2, 10 or 50 μM
Procedure: Mung bean cuttings have been used for many years as a model for assessing the effect of plant hormones and synthetic chemicals on the rooting process. In the present study, this system was used to ascertain activity of conjugates in inducing adventitious root (AR) formation, and to evaluate the rate of conjugate hydrolysis that releases the free active auxin. […] The rooting activity in this system is determined by the number of adventitious roots per cutting.
The mung bean model was used to examine the activity of conjugates of three phenoxy acids, 4-CPA, MCPA, and 2-DP, on rooting. For comparison, plants were treated with (unconjugated) IBA or with 2-DP conjugated to glycine methyl ester (Gly-ME).

[6] = system: DR5:venus marker; experiment: auxin activity by DR5:venus fluorescence in Arabidopsis plants; conditions: 10 μM
Procedure: Imaging was performed using an SP8 Leica confocal microscope including solid-state lasers producing 405, 488, 514 and 552 nm light, and hybrid or PMT detectors. Objectives were either PL APO 20×/0.75, WD 0.62 mm or PL APO 63×/1.2 WD 0.3 mm. For fluorescence measurements, the Imaris™ spot detection option (Bitplane A.G.) was used to segment nuclei and calculate the average signal intensity.
One technique for assessing auxin activity of the 4-CPA amino acid conjugates utilized plants expressing nucleus-localized, fluorescent DR5:venus marker, the expression level of which is an indicator of intracellular auxin activity [Laskowski et al., PLoS Biol 2008, 6:e307]. Four days old seedlings grown on regular MS medium were transferred to plates containing 10 μM of the tested compounds and fluorescence was inspected by confocal microscope after 24 hours.
In order to assess the ability of the abovementioned sodium salts to penetrate the cells and activate an auxin response, an Arabidopsis DR5-Venus model was utilized (as described hereinabove). The plants were exposed to 10 μM of each compound for 24 hour; MS medium was used as a negative control, and the related Compounds 1p, 1r and 1t were used as positive controls.

[7] = system: Arabidopsis seedlings; experiment: root elongation inhibition in Arabidopsis seedlings; conditions: 50 nM; for effect on root elongation relative to control, in words: after 5 days
Procedure: as §2
A common technique for evaluating auxin activity is by determining the ability of a compound to inhibit root elongation [Zolman et al., Genetics 2000, 156:1323-1337]. In order to use this assay for comparing auxin activities of different conjugates, the minimum concentration of free 4-CPA that is active in the root elongation inhibition assay was determined. Four days old seedlings were placed in vertical plates containing increasing concentrations of 4-CPA. The root lengths were marked daily during 5 days.
Based on the above results, the effect of conjugates of 4-CPA (Compounds 1o-1t) on root elongation after 5 days was determined at concentrations of 50 nM.

[8] = system: Pinus halepensis cuttings; experiment: rooting and root development in pine cuttings; conditions: 400 ppm IBA potassium salt + 5 ppm conjugate, 4 hours dip; 12 weeks
Procedure: The effects of exemplary D-amino acid conjugates of 4-CPA (Compounds to and Is) on rooting in Pinus halepensis cuttings were compared with those of 2-DP-glycine methyl ester conjugate (2-DP-Gly). Rooting mature pine cuttings (i.e., cuttings that are taken from trees more than 4 years old) is very difficult.
Apical cuttings were taken from 7-year-old trees, stored for 4 weeks at 4° C., and treated by dipping the cutting bases for 4 hours in the following solution: 400 ppm IBA potassium salt+5 ppm tested conjugate+0.1% Amistar™ fungicide (250 grams/liter azoxystrobin). The cuttings were evaluated after 12 weeks.

[9] = system: Arabidopsis seedlings; experiment: split petri dish assay, separate shoot or root application in etiolated Arabidopsis seedlings; conditions: 10 μM
Description: The observation that AR enhancement in Eucalyptus cuttings was higher when 4-CPA conjugates were applied also to the leaves (as described in Example 3) prompted further investigation into the functions of shoot-derived 4-CPA. To this end, 4-CPA or Compounds 1p and it were applied specifically to roots or shoots of five-day old etiolated Arabidopsis seedlings using a split petri dish (as depicted in FIG. 26) and the effect on root elongation, lateral root (LR) formation and adventitious root (AR) formation was evaluated.
Arabidopsis plants were germinated and grown in the dark for 5 days, then then transferred to petri dishes with a partition in the middle. Each half of these plates contained either medium alone or with 10 μM of 4-CPA or Compound 1p or 1tl. The etiolated seedlings were put on the plates with their collet region on the partition such that either the hypocotyl and cotyledons, or the root or both were in touch with the medium containing the tested compound. Adventitious roots and lateral roots were counted and the length of the primary root was measured after a week.

[10] = system: cuttings from mature Eucalyptus grandis trees; experiment: rooting of cuttings from mature Eucalyptus grandis trees; conditions: 100 μM compound by submerging or spraying, with 6000 ppm IBA

## CC[C@H](C)[C@H](NC(=O)COc1ccc(Cl)cc1)C(=O)OC [4-CPA-L-Ile-methyl ester]
[1]
  root number compared to IBA control, in words: promoted an increase in root number
[1]; Example 12 repeat: 6000 ppm IBA with 50 μM conjugate, or IBA control
  rooting of cuttings, repeated experiment in a different season: 50%
[2]
  number of roots per cutting in argan clone YM3 compared to IBA control, in words: considerably increased the number of roots per cutting
[3]
  root architecture / root length of VC801 avocado cuttings compared to IBA control, in words: more roots per cutting and considerably longer roots
[3]; conjugate, or IBA control
  rooting of VC801 avocado cuttings: 60%

## COC(=O)[C@H](CC(C)C)NC(=O)COc1ccc(Cl)cc1 [4-CPA-L-Leu-methyl ester]
[1]
  root number compared to IBA control, in words: promoted an increase in root number
[4]; Example 12: etiolated seedlings, 1 hour in 10 μM
  average number of adventitious roots: 10
[2]
  number of roots per cutting in argan clone YM3 compared to IBA control, in words: considerably increased the number of roots per cutting
[3]
  root architecture / root length of VC801 avocado cuttings compared to IBA control, in words: considerably increased root length

## COC(=O)[C@H](NC(=O)COc1ccc(Cl)cc1)C(C)C [Compound 1o]
[5]
  effect on AR formation in mung bean cuttings, in words: induced rooting to a degree positively correlated with concentration
[1]
  appearance of the roots compared with IBA alone: appeared more branched
[6]
  DR5 fluorescence (auxin activity), in words: significantly lower fluorescence
[7]
  effect on root elongation relative to control, in words: did not affect root elongation
[4]
  adventitious roots formed on average: 0.5±0.3
[8]
  Degree of root development Medium (%): 14.3%
  Degree of root development Weak (%): 7.2%
  Degree of root development Well-developed (%): 71.4* %
  Rooting rate (%): 100%

## COC(=O)[C@@H](NC(=O)COc1ccc(Cl)cc1)C(C)C [Compound 1p, 4-CPA-L-Val]
[5]
  effect on AR formation in mung bean cuttings, in words: induced rooting only at low concentrations
[1]; 6000 ppm IBA and 100 μM conjugate by submersion of base plus spraying of foliage
  percentage of adventitious root formation (rooting): 51±8%
[1]
  appearance of the roots compared with IBA alone: appeared more branched
[6]
  effect on root tip and root elongation zone: loss of auxin activity at the root tip, and swelling of the root elongation zone
[7]
  effect on root elongation relative to control, in words: inhibited root elongation relative to control
[7]; slight inhibition until day 3, complete from day 4
  time course of root elongation inhibition: biphasic behavior
[4]
  adventitious roots formed on average: 7±1.4
[9]; 24 hours on split dish
  effect on root growth of application to the shoot compared with application directly to the root: even stronger
[9]; split dish
  adventitious root formation, exposure of shoots compared to exposure of roots: significantly more adventitious root formation
  lateral root formation, shoot application compared with root application: inhibited lateral root formation more efficiently than application to roots
[10]
  rooting in combination with IBA compared with IBA alone, in words: at least as potent as that of their corresponding D-amino acid conjugates
